Test results taken from patent publication US8946437B2, “4-(methylaminophenoxy)pyrdin-3-yl-benzamide derivatives for treating cancer” (Otsuka Pharmaceutical Co., Ltd., priority 2010, dated 2015).
Structures can show the parent of a compound that is named as a salt.

How the values were obtained:
[1] = system: human hepatic cancer cells (HuH-7); assay: Antiproliferative effect on cancer cells (in vitro), sulforhodamine B method; assay type: cell-based; conditions: 120 h, HuH-7 cells, 5 days incubation with test compound, SRB staining, read-out: IC50 (50% inhibitory concentration), growth inhibition of HuH-7 cells
Method: Antiproliferative Effect on Cancer Cells (In Vitro)
Growth inhibition of human hepatic cancer cells (HuH-7) was determined by the sulforhodamine B method based on the method of Skehan P. et al. (J Natl Cancer Inst. 1990 Jul. 4; 82(13): 1107-12). In the study, HuH-7 cells were seeded on DMEM medium containing 10% fetal bovine serum in a 96-well microplate. After 24-hour incubation at 37° C. in the presence of 5% carbon dioxide, the test compound was added and the cells were incubated for another 5 days. After incubation, a trichloroacetic acid solution was added to yield the final concentration of 10% and the cells were left to stand at 4° C. for 1 hour to fix. Then, the cells were washed with water to remove the medium and trichloroacetic acid and dried in the air. The dried cells were stored at 4° C. until they were stained with sulforhodamine B. To each well, 1% acetic acid solution containing 0.4% sulforhodamine B was added and left to stand for 20 to 30 minutes at room temperature. After discarding the supernatant, each well was washed with 1% acetic acid solution, and 10 mM Tris(tris-(hydroxymethyl)aminomethane) solution was added while stirring to elute the dye taken into the cells. Then, the optical density was determined at the measurement wavelength of 492 nm and the reference wavelength of 690 nm, and the difference was calculated. The cell growth activity in each well was defined as the value determined by subtracting the OD in the control well not containing cells (the difference in absorbance between 492 nm and 690 nm) from that in the test well.
The 50% inhibitory concentration (IC50 (nM)) of the test compound was determined by comparing the cell growth activity in the well containing the test compound with that of the control not containing the test compound.

[2] = Metabolic stability test in hepatic microsome; assay type: in vitro ADME; conditions: liver microsomes, NADH/NADPH, 37° C., 0, 10 and 20 min, read-out: CLint (intrinsic clearance)
Method: Metabolic Stability Test in Hepatic Microsome
In this study, 222.5 μL of 0.22 mg/mL liver microsome was distributed to each tube, and 2.5 μL of 100 μM test compound was added thereto. Then, 22.5 μL of this mixture was divided to 500 μL of acetonitrile spiked IS as 0 min sample, and the residue was pre-incubated at 37° C. for 5 min. Reaction was started by the addition of 22.5 μL of 10 mM NADH/NADPH, and after 10 and 20 min, 25 μL of the reaction mixture was divided to 500 μL of acetonitrile spiked IS. The samples were centrifuged (5700 rpm, 4° C., 10 min), and the supernatants were analyzed by LC/MS/MS. The slope of the linear regression from log percentage remaining versus incubation time relationships (−ke) was calculated, and the intrinsic clearance (CLint) was calculated using the following equation.

[3] = Stability test of dissolved compounds under heat- and acid-stress condition; assay type: physicochemical; conditions: dissolved in water/acetonitrile/trifluoroacetic acid (500:500:1), stored at 70° C., Day 0, Day 1 and Day 3
Method: In order to estimate the stability of compounds without conducting a long-term stability test, the stability of the dissolved compounds was evaluated under a heat- and acid-stress condition.
About 0.005 g of test compound was dissolved in 50 mL of a mobile phase, and this solution was used as the sample solution. The solutions were put into a brown glass vial and stored at 70° C. during the test period. The test with 20 μL of each of the sample solution was conducted at the following sampling points as directed under the Liquid Chromatography according to the following conditions. The residual ratio of the test compound's peak area (%) in the total peak area detected in the solution was determined by the automatic integration method. Operating conditions were as follows. […] The residual ratio of the test compound's peak area (%) is calculated as follows. The peak area of the test compound/The total peak area detected in the solution×100.

melting point	IC50 [1] [nM]	microsomal CLint at 1 µM [2] [µL/min/mg]	storage stability (residual ratio of the test compound's peak area) [3]	Structure (SMILES)
207.1 to 209.8 °C				CNc1ccc(Oc2ccc(NC(=O)c3ccc(F)c(F)c3F)cn2)c(OC)c1.Cl
190 to 190.5 °C (dec.)	108	< 200		CNc1ccc(Oc2ccc(NC(=O)c3ccc(-c4ccccc4)cc3)cn2)c(F)c1 [Example 2, N-{6-[2-Fluoro-4-(methylamino)phenoxy]pyridin-3-yl}biphenyl-4-carboxamide]
	155	< 200		CNc1ccc(Oc2ccc(NC(=O)c3ccc(C(F)(F)F)cc3)cn2)c(F)c1 [Example 3, N-{6-[2-Fluoro-4-(methylamino)phenoxy]pyridin-3-yl}-4-(trifluoromethyl)benzamide]
	78.5	< 200		CNc1ccc(Oc2ccc(NC(=O)c3ccc(Oc4ccccc4)cc3)cn2)c(C)c1 [Example 6, N-{6-[2-Methyl-4-(methylamino)phenoxy]pyridin-3-yl}-4-phenoxybenzamide]
	77.6	< 200		CNc1ccc(Oc2ccc(NC(=O)c3ccc(-c4ccccc4)cc3)cn2)c(C)c1 [Example 7, N-{6-[2-Methyl-4-(methylamino)phenoxy]pyridin-3-yl}biphenyl-4-carboxamide]
	70.4	< 200		CNc1ccc(Oc2ccc(NC(=O)c3ccc(C(F)(F)F)cc3F)cn2)c(C)c1 [Example 9, 2-Fluoro-N-{6-[2-methyl-4-(methylamino)phenoxy]pyridin-3-yl}-4-(trifluoromethyl)benzamide]
	320			CNc1ccc(Oc2ccc(NC(=O)c3ccc(Oc4ccccc4)cc3)cn2)cc1 [Example 10, N-{6-[4-(Methylamino)phenoxy]pyridin-3-yl}-4-phenoxybenzamide]
	311			CNc1ccc(Oc2ccc(NC(=O)c3ccc(-c4ccccc4)cc3)cn2)cc1 [Example 11, N-{6-[4-(Methylamino)phenoxy]pyridin-3-yl}biphenyl-4-carboxamide]
161.4 to 161.8 °C	248	< 200		CNc1ccc(Oc2ccc(NC(=O)c3ccc(-c4ccccc4)cc3)cn2)c(OC)c1 [Example 14, N-{6-[2-Methoxy-4-(methylamino)phenoxy]pyridin-3-yl}biphenyl-4-carboxamide]
	136			CNc1ccc(Oc2ccc(NC(=O)c3ccc(Oc4ccccc4)cc3)cn2)c(F)c1 [Example 21, N-{6-[2-fluoro-4-(methylamino)phenoxy]pyridin-3-yl}-4-phenoxybenzamide hydrochloride]
	163	< 200		CNc1ccc(Oc2ccc(NC(=O)c3ccc(C(F)(F)F)cc3F)cn2)c(F)c1 [Example 22, 2-Fluoro-N-{6-[2-fluoro-4-(methylamino)phenoxy]pyridin-3-yl}-4-(trifluoromethyl)benzamide hydrochloride]
	753			CNc1ccc(Oc2ccc(NC(=O)c3ccc(F)c(F)c3F)cn2)c(F)c1 [Example 23, 2,3,4-Trifluoro-N-{6-[2-fluoro-4-(methylamino)phenoxy]pyridin-3-yl}benzamide hydrochloride]
	72.3	< 200		CNc1ccc(Oc2ccc(NC(=O)c3ccc(C(F)(F)F)cc3)cn2)c(C)c1 [Example 24, N-{6-[2-methyl-4-(methylamino)phenoxy]pyridin-3-yl}-4-(trifluoromethyl)benzamide hydrochloride]
222.9 to 225.4 °C (dec.)	485	< 200		CNc1ccc(Oc2ccc(NC(=O)c3ccc(F)c(F)c3F)cn2)c(C)c1.Cl [Example 25, 2,3,4-Trifluoro-N-{6-[2-methyl-4-(methylamino)phenoxy]pyridin-3-yl}benzamide hydrochloride]
202.2 to 202.3 °C	275	< 200		CNc1ccc(Oc2ccc(NC(=O)c3ccc(Oc4ccccc4)cc3)cn2)c(OC)c1.Cl [Example 26, N-{6-[2-Methoxy-4-(methylamino)phenoxy]pyridin-3-yl}-4-phenoxybenzamide hydrochloride]
217.6 to 218.2 °C	304	< 200		CNc1ccc(Oc2ccc(NC(=O)c3ccc(C(F)(F)F)cc3)cn2)c(OC)c1.Cl [Example 27, N-{6-[2-Methoxy-4-(methylamino)phenoxy]pyridin-3-yl}-4-(trifluoromethyl)benzamide hydrochloride]
197 to 198.1 °C	293	< 200		CNc1ccc(Oc2ccc(NC(=O)c3ccc(C(F)(F)F)cc3F)cn2)c(OC)c1.Cl [Example 28, 2-Fluoro-N-{6-[2-methoxy-4-(methylamino)phenoxy]pyridin-3-yl}-4-(trifluoromethyl)benzamide hydrochloride]
	275	< 200	superior storage stability	CNc1ccc(Oc2ccc(NC(=O)c3ccc(C(F)(F)F)cc3)cn2)cc1.Cl [Example 30, N-{6-[4-(Methylamino)phenoxy]pyridin-3-yl}-4-(trifluoromethyl)benzamide hydrochloride]
	327	< 200		CNc1ccc(Oc2ccc(NC(=O)c3ccc(C(F)(F)F)cc3F)cn2)cc1 [Example 31, 2-Fluoro-N-{6-[4-(methylamino)phenoxy]pyridin-3-yl}-4-(trifluoromethyl)benzamide hydrochloride]
